Like-named read-outs stand apart in the source and are kept apart here.
Tests used:
TNFα = assay: Cot Monocyte TNFα Cell Based Assay
Human Cot = Human Cot (Homo sapiens (Human), UniProt P41279); assay: High Throughput Cot Biochemical Assay; conditions: Cot HTRF (TR-FRET) biochemical assay
[1] = Homo sapiens, Monocyte, read-out: EC50 TNF, LPS-stimulated human monocytes, TNFα

Chain of Human Cot (P41279 30-397): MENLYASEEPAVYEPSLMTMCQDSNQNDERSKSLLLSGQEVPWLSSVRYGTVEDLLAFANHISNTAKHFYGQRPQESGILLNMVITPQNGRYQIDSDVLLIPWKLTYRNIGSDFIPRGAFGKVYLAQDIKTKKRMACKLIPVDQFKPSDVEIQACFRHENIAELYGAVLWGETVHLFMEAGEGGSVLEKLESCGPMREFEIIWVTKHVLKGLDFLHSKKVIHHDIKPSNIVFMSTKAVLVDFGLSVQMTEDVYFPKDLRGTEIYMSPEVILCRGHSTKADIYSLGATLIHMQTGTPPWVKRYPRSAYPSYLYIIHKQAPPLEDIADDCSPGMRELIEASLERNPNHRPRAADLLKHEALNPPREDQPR

Row | EC50 (TNFα; [1]) | IC50 (Human Cot; IC50 HTRF) | EC50 (TNFα; read-out: EC50 TNF, LPS-stimulated human monocytes, TNFα) | IC50 (Human Cot; read-out: IC50 HTRF) | Compound
1 | 120 nM | 6 nM |  |  | CC(C)(C)CNc1c(C#N)cnc2c(Cl)cc(N[C@H](c3cn(C4(C(F)(F)F)CC4)nn3)c3csc4cnccc34)cc12 [Example 741, (S)-8-chloro-4-(neopentylamino)-6-((thieno[2,3-c]pyridin-3-yl(1-(1-(trifluoromethyl)cyclopropyl)-1H-1,2,3-triazol-4-yl)methyl)amino)quinoline-3-carbonitrile]
2 | 199 nM | 17 nM |  |  | Cc1nc(F)ccc1[C@H](Nc1cc(Cl)c2ncc(C#N)c(Nc3cnc(F)c(F)c3)c2c1)c1cn(C2(C(F)F)CC2)nn1 [Example 742, (S)-8-chloro-6-(((1-(1-(difluoromethyl)cyclopropyl)-1H-1,2,3-triazol-4-yl)(6-fluoro-2-methylpyridin-3-yl)methyl)amino)-4-((5,6-difluoropyridin-3-yl)amino)quinoline-3-carbonitrile]
3 | 116 nM | 5 nM |  |  | CC(C)(C)CNc1c(C#N)cnc2c(Cl)cc(N[C@H](c3cn(C4(C(F)F)CC4)nn3)c3cccc4c(=O)n(CC(F)F)ccc34)cc12 [Example 743, (S)-8-chloro-6-(((2-(2,2-difluoroethyl)-1-oxo-1,2-dihydroisoquinolin-5-yl)(1-(1-(difluoromethyl)cyclopropyl)-1H-1,2,3-triazol-4-yl)methyl)amino)-4-(neopentylamino)quinoline-3-carbonitrile]
4 | 33 nM | 3 nM |  |  | Cn1ccc2c([C@H](Nc3cc(Cl)c4ncc(C#N)c(NCC(C)(C)C)c4c3)c3cn(C4(C(F)F)CC4)nn3)cccc2c1=O [Example 744, (S)-8-chloro-6-(((1-(1-(difluoromethyl)cyclopropyl)-1H-1,2,3-triazol-4-yl)(2-methyl-1-oxo-1,2-dihydroisoquinolin-5-yl)methyl)amino)-4-(neopentylamino)quinoline-3-carbonitrile]
5 | 28 nM | 2 nM |  |  | Cn1ccc2c([C@H](Nc3cc(Cl)c4ncc(C#N)c(NCC(C)(C)C)c4c3)c3cn(C4CC4)nn3)cccc2c1=O [Example 745, (S)-8-chloro-6-(((1-cyclopropyl-1H-1,2,3-triazol-4-yl)(2-methyl-1-oxo-1,2-dihydroisoquinolin-5-yl)methyl)amino)-4-(neopentylamino)quinoline-3-carbonitrile]
6 | 36 nM | 4 nM |  |  | Cn1ccc2c([C@H](Nc3cc(Cl)c4ncc(C#N)c(NCC(C)(C)C)c4c3)c3cn(C(C)(C)C)nn3)cccc2c1=O [Example 747, (S)-6-(((1-(tert-butyl)-1H-1,2,3-triazol-4-yl)(2-methyl-1-oxo-1,2-dihydroisoquinolin-5-yl)methyl)amino)-8-chloro-4-(neopentylamino)quinoline-3-carbonitrile]
7 |  |  | 194 nM | 11 nM | CCC(F)(F)Cn1cc([C@@H](Nc2cc(Cl)c3ncc(C#N)c(NCC(C)(C)C)c3c2)c2ccc(F)nc2C)nn1 [Example 750, (S)-8-chloro-6-(((1-(2,2-ifluorobutyl)-1H-1,2,3-triazol-4-yl)(6-fluoro-2-methylpyridin-3-yl)methyl)amino)-4-(neopentylamino)quinoline-3-carbonitrile]
8 | 57 nM | 5 nM |  |  | Cc1nc(F)ccc1[C@H](Nc1cc(Cl)c2ncc(C#N)c(NCC(C)(C)C)c2c1)c1cn(CC2(C(F)F)CC2)nn1 [Example 752, (S)-8-chloro-6-(((1-((1-(difluoromethyl)cyclopropyl)-methyl)-1H-1,2,3-triazol-4-yl)(6-fluoro-2-methylpyridin-3-yl)methyl)amino)-4-(neopentylamino)quinoline-3-carbonitrile]
9 | 31 nM | 3 nM |  |  | CCC1(n2cc([C@@H](Nc3cc(Cl)c4ncc(C#N)c(NCC(C)(C)C)c4c3)c3ccc(F)nc3C)nn2)CC1 [Example 754, (S)-8-chloro-6-(((1-(1-ethylcyclopropyl)-1H-1,2,3-triazol-4-yl)(6-fluoro-2-methylpyridin-3-yl)methyl)amino)-4-(neopentylamino)quinoline-3-carbonitrile]
10 | 26 nM | 3 nM |  |  | CCC1(n2cc([C@@H](Nc3cc(Cl)c4ncc(C#N)c(NCC(C)(C)C)c4c3)c3cccc4c(=O)n(C)ccc34)nn2)CC1 [Example 756, (S)-8-chloro-6-(((1-(1-ethylcyclopropyl)-1H-1,2,3-triazol-4-yl)(2-methyl-1-oxo-1,2-dihydroisoquinolin-5-yl)methyl)amino)-4-(neopentylamino)quinoline-3-carbonitrile]
11 | 60 nM | 5 nM |  |  | Cc1nc(F)ccc1[C@H](Nc1cc(Cl)c2ncc(C#N)c(NCC(C)(C)C)c2c1)c1cn(C2(C(C)C)CC2)nn1 [Example 757, (S)-8-chloro-6-(((6-fluoro-2-methylpyridin-3-yl)(1-(1-isopropylcyclopropyl)-1H-1,2,3-triazol-4-yl)methyl)amino)-4-(neopentylamino)quinoline-3-carbonitrile]
12 | 50 nM | 4 nM |  |  | Cc1nc(F)ccc1[C@H](Nc1cc(Cl)c2ncc(C#N)c(NCC(C)(C)C)c2c1)c1cn(C(C)(C)C2CC2)nn1 [Example 758, (S)-8-chloro-6-(((1-(2-cyclopropylpropan-2-yl)-1H-1,2,3-triazol-4-yl)(6-fluoro-2-methylpyridin-3-yl)methyl)amino)-4-(neopentylamino)quinoline-3-carbonitrile]
13 | 42 nM | 2 nM |  |  | Cc1nc(F)ccc1[C@H](Nc1cc(Cl)c2ncc(C#N)c(NCC(C)(C)C)c2c1)c1cn(C2(C)COC2)nn1 [Example 759, (S)-8-chloro-6-(((6-fluoro-2-methylpyridin-3-yl)(1-(3-methyloxetan-3-yl)-1H-1,2,3-triazol-4-yl)methyl)amino)-4-(neopentylamino)quinoline-3-carbonitrile]
14 | 58 nM | 2 nM |  |  | Cn1ccc2c([C@H](Nc3cc(Cl)c4ncc(C#N)c(NCC(C)(C)C)c4c3)c3cn(C4(C)COC4)nn3)cccc2c1=O [Example 760, (S)-8-chloro-6-(((2-methyl-1-oxo-1,2-dihydroisoquinolin-5-yl)(1-(3-methyloxetan-3-yl)-1H-1,2,3-triazol-4-yl)methyl)amino)-4-(neopentylamino)quinoline-3-carbonitrile]
15 | 50 nM | 3 nM |  |  | Cc1nc(F)ccc1[C@H](Nc1cc(Cl)c2ncc(C#N)c(NCC(C)(C)C)c2c1)c1cn(C(CF)CF)nn1 [Example 762, (S)-8-chloro-6-(((1-(1,3-difluoropropan-2-yl)-1H-1,2,3-triazol-4-yl)(6-fluoro-2-methylpyridin-3-yl)methyl)amino)-4-(neopentylamino)quinoline-3-carbonitrile]
16 | 40 nM | 3 nM |  |  | Cc1nc(F)ccc1[C@H](Nc1cc(Cl)c2ncc(C#N)c(NCC(C)(C)C(F)(F)F)c2c1)c1cn(C2(C3CC3)CC2)nn1 [Example 763, (S)-6-(((1-([1,1′-bi(cyclopropan)]-1-yl)-1H-1,2,3-triazol-4-yl)(6-fluoro-2-methylpyridin-3-yl)methyl)amino)-8-chloro-4-((3,3,3-trifluoro-2,2-dimethylpropyl)amino)-quinoline-3-carbonitrile]
17 | 46 nM | 4 nM |  |  | Cc1nc(F)ccc1[C@H](Nc1cc(Cl)c2ncc(C#N)c(NCC(C)(C)C)c2c1)c1cn(CC2(C)CC2)nn1 [Example 764, (S)-8-chloro-6-(((6-fluoro-2-methylpyridin-3-yl)(1-((1-methylcyclopropyl)-methyl)-1H-1,2,3-triazol-4-yl)methyl)amino)-4-(neopentylamino)quinoline-3-carbonitrile]
18 | 131 nM | 4 nM |  |  | CC(C)(C)CNc1c(C#N)cnc2c(Cl)cc(N[C@H](c3cn(C4(C(F)F)CC4)nn3)c3cccc4c(=O)[nH]ccc34)cc12 [Example 765, (S)-8-chloro-6-(((1-(1-(difluoromethyl)cyclopropyl)-1H-1,2,3-triazol-4-yl)(1-oxo-1,2-dihydroisoquinolin-5-yl)methyl)amino)-4-(neopentylamino)quinoline-3-carbonitrile]
19 | 30 nM | 2 nM |  |  | Cc1nc(F)ccc1[C@H](Nc1cc(Cl)c2ncc(C#N)c(NCC(C)(C)C)c2c1)c1cn(C2CC23CC3)nn1 (stereo partly drawn) [Example 766, 8-chloro-6-(((1S)-(6-fluoro-2-methylpyridin-3-yl)(1-(spiro[2.2]pentan-1-yl)-1H-1,2,3-triazol-4-yl)methyl)amino)-4-(neopentylamino)quinoline-3-carbonitrile]
20 | 209 nM | 18 nM |  |  | Cn1ccc2c([C@H](Nc3cc(Cl)c4ncc(C#N)c(NCC(C)(C)C)c4c3)c3cn(C4(C(F)F)CC4)nn3)ccnc21 [Example 767, (S)-8-chloro-6-(((1-(1-(difluoromethyl)cyclopropyl)-1H-1,2,3-triazol-4-yl)(1-methyl-1H-pyrrolo[2,3-b]pyridin-4-yl)methyl)amino)-4-(neopentylamino)quinoline-3-carbonitrile]
21 | 86 nM | 6 nM |  |  | Cn1ccc2c([C@H](Nc3cc(Cl)c4ncc(C#N)c(NCC(C)(C)CO)c4c3)c3cn(C45CC(C4)C5)nn3)cccc2c1=O [Example 768, (S)-6-(((1-(bicyclo[1.1.1]pentan-1-yl)-1H-1,2,3-triazol-4-yl)(2-methyl-1-oxo-1,2-dihydroisoquinolin-5-yl)methyl)amino)-8-chloro-4-((3-hydroxy-2,2-dimethylpropyl)amino)quinoline-3-carbonitrile]
22 | 28 nM | 2 nM |  |  | CCn1ccc2c([C@H](Nc3cc(Cl)c4ncc(C#N)c(NCC(C)(C)C)c4c3)c3cn(C45CC(C4)C5)nn3)cccc2c1=O [Example 769, (S)-6-(((1-(bicyclo[1.1.1]pentan-1-yl)-1H-1,2,3-triazol-4-yl)(2-ethyl-1-oxo-1,2-dihydroisoquinolin-5-yl)methyl)amino)-8-chloro-4-(neopentylamino)quinoline-3-carbonitrile]

From patent US11066414B2, “Cot modulators and methods of use thereof” (Gilead Sciences, Inc., priority 2015, dated 2021)
